Experimental data taken from US5428031A, “Methods of treating cardiac arrhythmia” (priority 1993, dated 1995).
Like-named read-outs stand apart in the source and are kept apart here. Values belong to the compound of their own block, whether it stands above or below them.

What was measured:
[1] = tested on: IKr; details: cited from earlier work
[2] = target: T1, IKr (rapidly activating delayed rectifier K+ current) (Cavia porcellus, UniProt O08703); test: voltage clamp measurement of IKr block in isolated guinea pig ventricular myocytes; format: cell-based
T1 construct: Guinea pig ventricular myocytes were isolated; endogenous in cells; host or cells: isolated guinea pig ventricular myocytes
T1 sequence (O08703 1-1294): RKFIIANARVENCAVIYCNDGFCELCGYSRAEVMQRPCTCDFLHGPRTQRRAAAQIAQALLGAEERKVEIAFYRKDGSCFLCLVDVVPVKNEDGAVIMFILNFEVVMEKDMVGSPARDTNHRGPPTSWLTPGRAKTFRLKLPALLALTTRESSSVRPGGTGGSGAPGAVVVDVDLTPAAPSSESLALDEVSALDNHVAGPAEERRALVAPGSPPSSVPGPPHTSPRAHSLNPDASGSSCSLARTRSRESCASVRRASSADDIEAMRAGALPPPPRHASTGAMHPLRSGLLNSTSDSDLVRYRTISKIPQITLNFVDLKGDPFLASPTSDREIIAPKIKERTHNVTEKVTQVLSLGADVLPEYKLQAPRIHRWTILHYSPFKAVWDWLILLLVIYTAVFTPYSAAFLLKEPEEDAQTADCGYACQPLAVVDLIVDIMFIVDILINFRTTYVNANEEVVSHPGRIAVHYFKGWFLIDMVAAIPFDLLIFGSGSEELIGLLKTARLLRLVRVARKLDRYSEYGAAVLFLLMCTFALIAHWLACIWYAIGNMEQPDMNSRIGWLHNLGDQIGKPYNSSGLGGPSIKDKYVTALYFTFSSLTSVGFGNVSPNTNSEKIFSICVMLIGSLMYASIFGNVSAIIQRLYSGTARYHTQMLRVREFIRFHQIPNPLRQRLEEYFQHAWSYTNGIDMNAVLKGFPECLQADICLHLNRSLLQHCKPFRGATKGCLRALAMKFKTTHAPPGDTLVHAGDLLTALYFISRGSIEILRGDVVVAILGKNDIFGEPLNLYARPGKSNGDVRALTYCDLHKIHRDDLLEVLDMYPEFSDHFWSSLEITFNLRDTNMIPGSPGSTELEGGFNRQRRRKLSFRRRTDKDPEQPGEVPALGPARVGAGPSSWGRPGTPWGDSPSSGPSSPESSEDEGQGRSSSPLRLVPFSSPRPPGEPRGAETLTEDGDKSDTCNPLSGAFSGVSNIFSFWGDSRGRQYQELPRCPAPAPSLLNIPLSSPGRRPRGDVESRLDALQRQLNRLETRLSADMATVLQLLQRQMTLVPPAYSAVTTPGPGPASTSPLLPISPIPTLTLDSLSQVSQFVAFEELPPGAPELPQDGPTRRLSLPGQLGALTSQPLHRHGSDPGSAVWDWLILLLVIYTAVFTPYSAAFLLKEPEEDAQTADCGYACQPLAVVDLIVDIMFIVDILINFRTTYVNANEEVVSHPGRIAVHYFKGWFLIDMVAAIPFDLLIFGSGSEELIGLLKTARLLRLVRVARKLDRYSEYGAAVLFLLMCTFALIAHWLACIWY
Method: (§1) Guinea pig ventricular myocytes were isolated using a modification of the procedure described by Mitra R and Morad M., "A Uniform Enzymatic Method for Dissociation of Myocytes from Hearts and Stomachs of Nertilorates", Am. J. Physiol. […] Excised hearts were perfused through the aorta (retrograde fashion) at a rate of 10 ml/min with oxygenated, warmed (37° C.) solutions described below. […] The head was then perfused with the same nominally Ca^2+ -free solution containing 150 units/ml Type II collagenase (Worthington) and 0.5 units/ml Type XIV protease (Sigma) for 8 minutes. This perfusate was followed by a Tyrode's solution containing 0.2 mM CaCl2 (without enzymes) for 5 minutes. The digested ventricles were cut into small pieces and gently shaken until cells were visibly dispersed. The cells were stored at room temperature until use, within 8 hours after isolation.
(§2) The suction microelectrode technique described by Giles, W. R. and Shibata, E. F., "Voltage clamp of bull-frog cardiac pacemaker cells: a quantitative, analysis of potassium currents". J. Physiol. […] Microelectrodes were made by using a two stage puller from square bore (1.0 mm o.d.) borosilicate capillary tubing. […] After establishing whole-cell recording mode, negative pressure was maintained on the pipette using a 1 ml gas-tight syringe attached via air tight tubing to the suction port of the microelectrode holder. This minimized dialysis of the cell with the pipette solution.
(§3) To record K^+ currents, the cells were bathed in a Ca^2+ -free Tyrode's :solution containing […] nisoldipine. […] A List EPC-7 clamp amplifier was used to voltage clamp the isolated cells. […] A variety of voltage pulse protocols were used to measure Ca^2+ current and three types of K^+ currents: inward rectifier (IK1), rapidly activating delayed rectifier (IKr) and the slowly activating delayed rectifier (IKs). Sanguinetti M. C. and Jurkiewicz, N. K., "Two components of cardiac delayed rectifier K^+ current: Differential sensitivity to block by Class III antiarrhythmic agents". […] Data was analyzed as % block from control membrane currents.
(§4) Nisoldipins was prepared as a 4 mM stock solution in polyethylne glycol 200. Compounds tested in this series were prepared as 10 mM stock solutions in polyethylene glycol 400 or dimethyl sulfoxide.

[3] = target: T2, IKs (slowly activating delayed rectifier K+ current) (Cavia porcellus, UniProt O70344); test: cell-based; format: cell-based, guinea pig
T2 construct: Guinea pig ventricular myocytes were isolated; endogenous in cells; host or cells: isolated guinea pig ventricular myocytes
Method: Current amplitude is measured as the difference from the initial instantaneous current level following the capacitance discharge after changing the transmembrane voltage from -50 mV to +50 mV, to the current level at the end of the 1 second voltage step. Normally, an increase in the current amplitude occurs as a function of time and voltage during depolarization of the cardiac cell membrane and this increasing current has been defined as the delayed rectifier K^+ current (IK). […] IKs current occurs as a consequence of time- and voltage-dependent opening of ionic channels or pores in the cardiac cell membrane that allow the relatively selective flow of potassium ions (K^+) from the inside to the outside of the cell, that is, down the voltage and concentration gradient for K^+ ions that is inherent in cardiac cells. Thus, block of the IKs current ultimately reflects block of certain ion channels or pores in the cardiac cell membrane. However, the single pores or channels thought to underlie the IKs current have yet to be measured or identified at the single channel level.
as §1, §2, §3, §4

[4] = tested on: K+ currents; details: 0.4 mM nisoldipine; cited from earlier work
[5] = tested on: L-type Ca2+ channels; details: 0.4 mM nisoldipine; cited from earlier work
[6] = tested on: IKs; details: cited from earlier work
[7] = tested on: thyroid function; details: cited from earlier work
[8] = tested on: phospholipase; details: cited from earlier work
[9] = tested on: Ca2+ currents; details: cited from earlier work
[10] = cited from earlier work
[11] = tested on: Na+ currents; details: cited from earlier work
[12] = tested on: adrenergic; details: cited from earlier work
[13] = read-out: IC50 or % Block (μM), IKr (% block)
[14] = 1 μM, read-out: Cellular Electrophysiology (% Block), IKs
[15] = 10 μM, read-out: Cellular Electrophysiology (% Block), IKs
[16] = 1 μM, read-out: Cellular Electrophysiology (% Block), IKr
[17] = 10 μM, read-out: Cellular Electrophysiology (% Block), IKr
[18] = read-out: Cellular Electrophysiology (% Block), IKs
[19] = read-out: Cellular Electrophysiology (% Block), IKr

SMILES: CS(=O)(=O)Nc1ccc2c(c1)C(O)CC1(CCN(C3CCc4cc(C#N)ccc4C3)CC1)O2 (single isomer, unassigned)
- block of IKr [1]: predominantly, if not exclusively, block IKr

SMILES: CN1C(=O)[C@H](NC(=O)c2cc3ccccc3[nH]2)N=C(c2ccccc2)c2ccccc21 [Compound 1, 3(R)-(+)-1,3-dihydro-3-(2-indolecarbonylamino)-1-methyl-5-phenyl-2H-1,4-benzodiazepin-2-one]
- inhibition at 1 µM [2, 13]: 20%

SMILES: CN1C(=O)[C@@H](NC(=O)c2cc3ccccc3[nH]2)N=C(c2ccccc2)c2ccccc21 [Compound 2, 3(S)-(-)-1,3-dihydro-3-(2-indolecarbonylamino)-1-methyl-5-phenyl-2H-1,4-benzodiazepin-2-one]
- inhibition at 1 µM ([3]; read-out: IC50 or % Block (μM), IKs (% block)): 25%
- inhibition at 1 µM [2, 13]: 21%

- inhibition at 1 µM [3, 14]: 10%
- inhibition at 10 µM [3, 15]: 30.5 ± 6.6%
- IC50 ([3]; Guinea Pig Myocytes, read-out: IC50 or % Block (μM), IKs (bare number: IC50)): 57 µM
SMILES: CC(C)S(=O)(=O)NC(=O)c1cccc(NC(=O)NC2N=C(C3CCCCC3)c3ccccc3N(C)C2=O)c1 (stereo not shown) [Example 5]
- inhibition at 1 µM [2, 16]: 16.1%
- inhibition at 10 µM [2, 17]: 24.7 ± 13%
- IC50 ([2]; Guinea Pig Myocytes, read-out: IC50 or % Block (μM), IKr (bare number: IC50)): 77 µM

SMILES: CN1C(=O)[C@H](N)N=C(c2ccccc2)c2ccccc21 [Example 7]
- inhibition at 1 µM [3, 18]: 29.9 ± 6%
- inhibition at 10 µM [3, 18]: 43.4 ± 10.8%
- inhibition at 1 µM [2, 19]: 14.8 ± 6.7%
- inhibition at 10 µM [2, 19]: 36.4 ± 2.9%

SMILES: CN1C(=O)C(NC(=O)c2cc3ccccc3[nH]2)N=C(c2ccncc2)c2ccccc21 (stereo not shown) [Example 9]
- inhibition at 1 µM [3, 14]: 20%
- inhibition at 10 µM [3, 15]: 66%
- inhibition at 1 µM [2, 16]: 44.3%
- inhibition at 10 µM [2, 17]: 82.4%

- inhibition at 10 µM [3, 15]: 16 ± 11%
SMILES: Cc1cccc(NC(=O)NC2N=C(N3CCOCC3)c3ccccc3N(C)C2=O)c1 (stereo not shown) [Example 12]
- inhibition at 1 µM [2, 16]: 13 ± 3.1%
- inhibition at 10 µM [2, 17]: 30 ± 5.4%

SMILES: CN1C(=O)[C@H](NC(=O)C2CCC3(CC2)CCN(C(=O)OC(C)(C)C)CC3)N=C(c2ccccc2)c2ccccc21 [Example 40, (+)-N-[(3R)-2,3-Dihydro-1-methyl-2-oxo-5-phenyl-1H-1,4-benzo-diazepin-3-yl]-1'-(1,1-dimethylethoxycarbonyl)spiro(cyclohexan-4,4'-piperidine)-1-carboxamide]
- IKs inhibition, purity of action ([3]; in words): not a pure IKs inhibitor

SMILES: COC(=O)C1=C(C)NC(C)=C(C(=O)OCC(C)C)C1c1ccccc1[N+](=O)[O-] (stereo not shown) [Nisoldipine]
- effect on K+ currents [4]: no effect on K^+ currents
- block of L-type Ca2+ channels [5]: relatively specific blocker of L-type Ca^2+ channels

SMILES: CCCCc1oc2ccccc2c1C(=O)c1cc(I)c(OCCN(CC)CC)c(I)c1 [amiodarone]
- block of IKs [6]: blocker of IKs
- effect on thyroid function [7]: effects thyroid function
- inhibition of phospholipase [8]: inhbitor of the enzyme phospholipase
- block of Ca2+ currents [9]: blocks Na^+ and Ca^2+ currents
- Class III properties / selectivity [10]: interesting Class III properties
- Class III properties / selectivity ([10]; listed as Amiodarone): not a selective Class III antiarrhythmic agent
- block of Na+ currents [11]: blocks Na^+ and Ca^2+ currents
- adrenergic block [12]: nonspecific adrenergic blocker

SMILES: CC(C)NCC(O)c1ccc(NS(C)(=O)=O)cc1 (stereo not drawn) [d-sotalol]
- block of IKr [1]: predominantly, if not exclusively, block IKr

SMILES: CN(CCOc1ccc(NS(C)(=O)=O)cc1)CCc1ccc(NS(C)(=O)=O)cc1 [dofetilide]
- block of IKr [1]: predominantly, if not exclusively, block IKr
